Laboratory results: ChEMBL document CHEMBL4619826, “Insights into the Molecular Determinants Involved in Urocontrin and Urocontrin A Action” (ACS Med Chem Lett, 2020)
pEC50, pIC50: −log10 of the molar value.

Columns and labels:
Thoracic aorta [1] = experiment: Contractile activity in Sprague-Dawley rat thoracic aorta assessed as ratio of KCl-induced contraction to human U2-induced contraction in aortic ring at 10^-11 to 3 x 10^-6 M relative to control; assay type: functional
Urotensin-2 receptor = molecular target: T1, Urotensin-2 receptor (Homo sapiens, UniProt Q9UKP6); experiment: Antagonist activity at human UT receptor expressed in HEK293 cells using Na [125I] incubated for 2 hrs by gamma counting method; assay type: cell-based
T1 sequence (Q9UKP6 whole entry): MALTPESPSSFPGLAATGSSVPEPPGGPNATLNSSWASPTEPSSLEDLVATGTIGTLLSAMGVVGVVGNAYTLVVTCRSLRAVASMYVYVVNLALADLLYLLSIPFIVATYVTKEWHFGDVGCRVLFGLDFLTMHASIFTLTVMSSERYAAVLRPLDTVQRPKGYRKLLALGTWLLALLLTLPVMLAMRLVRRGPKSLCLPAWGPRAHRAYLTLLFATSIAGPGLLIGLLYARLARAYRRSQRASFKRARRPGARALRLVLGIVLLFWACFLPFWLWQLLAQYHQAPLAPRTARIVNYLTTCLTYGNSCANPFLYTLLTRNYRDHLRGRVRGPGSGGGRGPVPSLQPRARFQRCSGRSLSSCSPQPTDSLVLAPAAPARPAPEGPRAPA

Thoracic aorta [2] = experiment: Contractile activity in Sprague-Dawley rat thoracic aorta assessed as contraction in aortic ring preincubated ofr 30 mins followed by URP or human U2-stimulation; assay type: functional, tissue-based
Thoracic aorta [3] = experiment: Contractile activity in Sprague-Dawley rat thoracic aorta assessed as ratio of KCl-induced contraction to URP-induced contraction in aortic ring at 10^-6 M (reference value: 107 +/- 3 %); assay type: functional
Thoracic aorta [4] = experiment: Contractile activity in Sprague-Dawley rat thoracic aorta assessed as ratio of KCl-induced contraction to human U2-induced contraction in aortic ring at 3 x 10^-6 M (reference value: 101 +/- 4 %); assay type: functional
Thoracic aorta [5] = experiment: Contractile activity in Sprague-Dawley rat thoracic aorta assessed as contraction in aortic ring preincubated ofr 30 mins followed by URP-stimulation (reference value: 8.16 +/- 0.08); assay type: functional, tissue-based
Thoracic aorta [6] = experiment: Contractile activity in Sprague-Dawley rat thoracic aorta assessed as contraction in aortic ring preincubated ofr 30 mins followed by human U2-stimulation (reference value: 8.59 +/- 0.12); assay type: functional, tissue-based
Thoracic aorta [7] = experiment: Contractile activity in Sprague-Dawley rat thoracic aorta assessed as ratio of KCl-induced contraction to human U2-induced contraction in aortic ring at 10^-6 M (reference value: 101 +/- 4 %); assay type: functional
Thoracic aorta [8] = experiment: Contractile activity in Sprague-Dawley rat thoracic aorta assessed as contraction in aortic ring at 10^-5 M relative to control; assay type: functional
Thoracic aorta [9] = experiment: Contractile activity in Sprague-Dawley rat thoracic aorta assessed as ratio of KCl-induced contraction to URP-induced contraction in aortic ring at 10^-5 M (reference value: 107 +/- 3 %); assay type: functional
Thoracic aorta [10] = experiment: Contractile activity in Sprague-Dawley rat thoracic aorta assessed as ratio of KCl-induced contraction to URP-induced contraction in aortic ring at 3 x 10^-6 M (reference value: 107 +/- 3 %); assay type: functional
Thoracic aorta [11] = experiment: Contractile activity in Sprague-Dawley rat thoracic aorta assessed as ratio of KCl-induced contraction to human U2-induced contraction in aortic ring at 10^-5 M (reference value: 101 +/- 4 %); assay type: functional

Row | Compound | pIC50 (Urotensin-2 receptor) | pEC50 (Thoracic aorta [2]) | pEC50 (Thoracic aorta [5]) | pEC50 (Thoracic aorta [6]) | Emax (Thoracic aorta [1]) [%] | Emax at 1 µM (Thoracic aorta [3]) [%] | Emax at 3 µM (Thoracic aorta [4]) [%] | Emax at 1 µM (Thoracic aorta [7]) [%] | Emax at 10 µM (Thoracic aorta [8]) [%] | Emax at 10 µM (Thoracic aorta [9]) [%] | Emax at 3 µM (Thoracic aorta [10]) [%] | Emax at 10 µM (Thoracic aorta [11]) [%]
1 | CC(C)[C@H](NC(=O)[C@@H]1CSSC[C@H](NC(=O)[C@H](C)N)C(=O)N[C@@H](Cc2ccccc2)C(=O)N[C@@H](Cc2c[nH]c3ccccc23)C(=O)N[C@@H](CCCCN)C(=O)N[C@@H](Cc2ccc(O)cc2)C(=O)N1)C(=O)O | 8.29 | 8.16 | – | – | 107 | – | – | – | – | – | – | –
2 | CC(C)[C@H](NC(=O)[C@@H]1CSSC[C@H](NC(=O)[C@H](C)N)C(=O)N[C@@H](Cc2ccccc2)C(=O)N[C@@H](Cc2ccc(-c3ccsc3)cc2)C(=O)N[C@@H](CCCCN)C(=O)N[C@@H](Cc2ccc(O)cc2)C(=O)N1)C(=O)O | 7.44 | < 5.50 | 7.89 | 8.12 | – | 115 | 20 | 105 | – | – | – | –
3 | CC(C)[C@H](NC(=O)[C@@H]1CSSC[C@H](NC(=O)[C@H](C)N)C(=O)N[C@@H](Cc2ccccc2)C(=O)N[C@@H](Cc2ccc(OCc3ccccc3)cc2)C(=O)N[C@@H](CCCCN)C(=O)N[C@@H](Cc2ccc(O)cc2)C(=O)N1)C(=O)O | – | < 5.50 | – | – | – | – | 80 | – | – | – | – | –
4 | CC(C)[C@H](NC(=O)[C@@H]1CSSC[C@H](NC(=O)[C@H](C)N)C(=O)N[C@@H](Cc2ccccc2)C(=O)N[C@H](Cc2ccc(C#Cc3ccccc3)cc2)C(=O)N[C@@H](CCCCN)C(=O)N[C@@H](Cc2ccc(O)cc2)C(=O)N1)C(=O)O | 7.92 | 7.55 | – | – | 99 | – | – | – | – | – | – | –
5 | CC(C)[C@H](NC(=O)[C@@H]1CSSC[C@H](NC(=O)[C@H](C)N)C(=O)NC(Cc2ccccc2)C(=O)N[C@H](Cc2ccc(I)cc2)C(=O)N[C@@H](CCCCN)C(=O)N[C@@H](Cc2ccc(O)cc2)C(=O)N1)C(=O)O (stereo in doubt) | 8.61 | 7.54 | – | – | 114 | – | – | – | – | – | – | –

The next lines start with results.

Row | pIC50 (Urotensin-2 receptor) | pEC50 (Thoracic aorta [2]) | pEC50 (Thoracic aorta [5]) | pEC50 (Thoracic aorta [6]) | Compound | Emax (Thoracic aorta [1]) [%] | Emax at 1 µM (Thoracic aorta [3]) [%] | Emax at 3 µM (Thoracic aorta [4]) [%] | Emax at 1 µM (Thoracic aorta [7]) [%] | Emax at 10 µM (Thoracic aorta [8]) [%] | Emax at 10 µM (Thoracic aorta [9]) [%] | Emax at 3 µM (Thoracic aorta [10]) [%] | Emax at 10 µM (Thoracic aorta [11]) [%]
6 | 6.81 | < 5.50 | 8.19 to 8.53 | 8.35 to 8.85 | CC(C)[C@H](NC(=O)[C@@H]1CSSC[C@H](NC(=O)[C@H](C)N)C(=O)N[C@@H](Cc2ccccc2)C(=O)N[C@@H](Cc2ccc(-c3ccncc3)cc2)C(=O)N[C@@H](CCCCN)C(=O)N[C@@H](Cc2ccc(O)cc2)C(=O)N1)C(=O)O | – | 96 | 5 to 25 | 70 | 9 | 92 | 94 | –
7 | 6.99 | < 5.50 | 8.07 | 8.68 | CC(C)[C@H](NC(=O)[C@@H]1CSSC[C@H](NC(=O)[C@H](C)N)C(=O)N[C@@H](Cc2ccccc2)C(=O)N[C@@H](Cc2ccc(-c3cccnc3)cc2)C(=O)N[C@@H](CCCCN)C(=O)N[C@@H](Cc2ccc(O)cc2)C(=O)N1)C(=O)O | – | 102 | 24 | 94 | – | – | – | –
8 | 8.50 | 7.32 | – | – | CC(C)[C@H](NC(=O)[C@@H]1CSSC[C@H](NC(=O)[C@H](C)N)C(=O)N[C@@H](Cc2ccccc2)C(=O)N[C@H](Cc2ccc(-c3ccccc3)cc2)C(=O)N[C@@H](CCCCN)C(=O)N[C@@H](Cc2ccc(O)cc2)C(=O)N1)C(=O)O | 97 | – | – | – | – | – | – | –
9 | 6.87 | 8.11 | 7.92 to 8.18 | 8.47 to 8.65 | CC(C)[C@H](NC(=O)[C@@H]1CSSC[C@H](NC(=O)[C@H](C)N)C(=O)N[C@@H](Cc2ccccc2)C(=O)N[C@@H](Cc2ccc(-c3ccc(-c4ccccc4)cc3)cc2)C(=O)N[C@@H](CCCCN)C(=O)N[C@@H](Cc2ccc(O)cc2)C(=O)N1)C(=O)O | 9 | 99 | 65 | 79 | – | 92 | 95 | 55
